Experimental findings from patent US10329302B2, “Bicyclic-fused heteroaryl or aryl compounds” (Pfizer Inc., priority 2014, dated 2019) are described below.

The term IC50 denotes the concentration at which inhibition is half-maximal.

Sequence of human IRAK4 kinase domain (aa 154-460) (Q9NWZ3 154-460): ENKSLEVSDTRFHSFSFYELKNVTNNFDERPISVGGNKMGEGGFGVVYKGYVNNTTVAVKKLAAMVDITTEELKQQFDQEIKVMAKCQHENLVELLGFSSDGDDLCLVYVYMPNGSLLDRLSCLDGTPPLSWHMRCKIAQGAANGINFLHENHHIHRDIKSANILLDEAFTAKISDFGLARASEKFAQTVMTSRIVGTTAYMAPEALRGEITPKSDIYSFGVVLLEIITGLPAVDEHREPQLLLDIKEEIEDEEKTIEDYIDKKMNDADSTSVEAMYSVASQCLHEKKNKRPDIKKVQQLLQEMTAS

In this test the target is human IRAK4 kinase domain (aa 154-460) (Homo sapiens (Human), UniProt Q9NWZ3). The experiment in a line: IRAK4 Enzymatic DELFIA Assay, Protocol B. Particulars: human IRAK4 kinase domain (aa 154-460), 0.6 mM ATP (KM); read-out: IRAK4 DELFIA Protocol B IC50. In kind it is biochemical. An excerpt:
IRAK4 Enzymatic DELFIA Assay, Protocol B.
On to `CC(C)Oc1cc2c(OCC3CN(C)CCO3)nccc2cc1C(N)=O` (centres unmarked) [Example 44, 1-[(4-methylmorpholin-2-yl)methoxy]-7-(propan-2-yloxy)isoquinoline-6-carboxamide], for which the IC50 is 4260 nM.
For `CC(C)Oc1cc2c(OCC3CCN(C(=O)CC#N)CC3)ccnc2cc1C(N)=O` [Example 100, 4-{[1-(cyanoacetyl)piperidin-4-yl]methoxy}-6-(propan-2-yloxy)quinoline-7-carboxamide], the IC50 was found to be 482 nM.
Then `CC(C)Oc1cc2c(OC[C@@H]3COCCN3)nccc2cc1C(N)=O` [Example 160, 1-[(3S)-morpholin-3-ylmethoxy]-7-(propan-2-yloxy)isoquinoline-6-carboxamide], with 151 nM.
Then `CC(C)Oc1cc2c(O[C@@H]3C[C@H]4C[C@@H]3CN(C(=O)CC#N)C4)ccnc2cc1C(N)=O` [Example 89, 4-{[(1R,5R,6R)-3-(cyanoacetyl)-3-azabicyclo[3.2.1]oct-6-yl]oxy}-6-(propan-2-yloxy)quinoline-7-carboxamide], with 395 nM; and `CC(C)Oc1cc2c(OC[C@@H]3CC(CO)C(=O)N3)nccc2cc1C(N)=O` (stereo partly drawn) [Example 148, 1-{[(2S)-4-(hydroxymethyl)-5-oxopyrrolidin-2-yl]methoxy}-7-(propan-2-yloxy)isoquinoline-6-carboxamide], with 24 nM; and `CC(C)Oc1cc2c(OCC3CCNC3)nccc2cc1C(N)=O` (centres unmarked) [Example 191, 7-(propan-2-yloxy)-1-(pyrrolidin-3-ylmethoxy)isoquinoline-6-carboxamide], with 252 nM.
Then `CC(C)Oc1cc2c(OC[C@@H]3C[C@](O)(CC(F)(F)F)C(=O)N3)nccc2cc1C(N)=O` [Example 184, 1-{[(2S,4S)-4-hydroxy-5-oxo-4-(2,2,2-trifluoroethyl)pyrrolidin-2-yl]methoxy}-7-(propan-2-yloxy)isoquinoline-6-carboxamide], with 60 nM.
With `CC(C)Oc1cc2c(OC[C@@]34C[C@@H]3CN(C(=O)CC#N)C4)ccnc2cc1C(N)=O` [Example 94, 4-{[(1S,5S)-3-(cyanoacetyl)-3-azabicyclo[3.1.0]hex-1-yl]methoxy}-6-(propan-2-yloxy)quinoline-7-carboxamide], the IC50 is 526 nM.
In the case of `CC(C)Oc1cc2c(OCC3(C)CCCNC3)ccnc2cc1C(N)=O` (centres unmarked) [Example 58, 4-[(3-methylpiperidin-3-yl)methoxy]-6-(propan-2-yloxy)quinoline-7-carboxamide], the IC50 is 144 nM.
To `CC(C)Oc1cc2c(OC[C@H]3CN(C(=O)CC#N)CCO3)nccc2cc1C(N)=O` [Example 78, 1-{[(2R)-4-(cyanoacetyl)morpholin-2-yl]methoxy}-7-(propan-2-yloxy)isoquinoline-6-carboxamide] belongs 4740 nM.
In the case of `CC(C)Oc1cc2c(OC[C@@H]3CCN(C(=O)CC#N)C3)nccc2cc1C(N)=O` [Example 70, 1-{[(3R)-1-(cyanoacetyl)pyrrolidin-3-yl]methoxy}-7-(propan-2-yloxy)isoquinoline-6-carboxamide], the 50% inhibitory concentration (IC50) stood at 423 nM.
As to `CC(C)Oc1cc2c(OC[C@]34CNC[C@H]3C4)nccc2cc1C(N)=O` [Example 139, 1-[(1S,5S)-3-azabicyclo[3.1.0]hex-1-ylmethoxy]-7-(propan-2-yloxy)isoquinoline-6-carboxamide], the IC50 was found to be 256 nM.
Then `CO[C@H]1CN(C(=O)CC#N)C[C@@H]1COc1nccc2cc(C(N)=O)c(OC(C)C)cc12` [Example 84, 1-{[(3R,4R)-1-(cyanoacetyl)-4-methoxypyrrolidin-3-yl]methoxy}-7-(propan-2-yloxy)isoquinoline-6-carboxamide], with 534 nM; and `CC(C)Oc1cc2c(OCC3CCOCC3)nccc2cc1C(N)=O` [Example 36, 7-(propan-2-yloxy)-1-(tetrahydro-2H-pyran-4-ylmethoxy)isoquinoline-6-carboxamide], with 735 nM.
